Assay results taken from ChEMBL document CHEMBL3352807, “Design, synthesis and anti-mycobacterial activity of 1,2,3,5-tetrasubstituted pyrrolyl-N-acetic acid derivatives” (Eur J Med Chem, 2014).
In brackets after ≈: the same amount, converted by molar mass.

Columns and labels:
[1] = test system: Mycobacterium tuberculosis; test: Antimycobacterial activity against Mycobacterium tuberculosis H37Rv ATCC 27294 after 28 days by agar dilution method; format: functional; details: H37Rv ATCC 27294, 672 h
[2] = test system: Pseudomonas aeruginosa; test: Antibacterial activity against Pseudomonas aeruginosa; format: functional
[3] = Cytotoxicity against HEK293T cells at 50 uM after 72 hrs by MTT assay; format: cell-based, HEK-293T; details: human
[4] = test system: HEK-293T; test: Cytotoxicity against HEK293T cells after 72 hrs by MTT assay; format: cell-based; details: Homo sapiens
[5] = Selectivity index, ratio of IC50 for HEK293T cells to MIC for Mycobacterium tuberculosis H37Rv ATCC 27294; format: toxicity, cell-based, HEK-293T; details: human, read-out: Selectivity Index
[6] = test system: Mycolicibacterium smegmatis; test: Antimycobacterial activity against Mycobacterium smegmatis assessed as growth inhibition after 32 hrs by spectrophotometry; format: functional

O=C(O)Cn1c(-c2ccccc2)cc(-c2ccco2)c1-c1ccco1
MIC [1]: 75.1 µM (≈ 25 µg/mL) | MIC [2]: 113 µM (≈ 37.5 µg/mL)

CC(C)C(C(=O)O)n1c(-c2ccccc2)cc(-c2ccco2)c1-c1ccco1 (stereo not given)
MIC [1]: 66.7 µM (≈ 25 µg/mL) | MIC [2]: 400 µM (≈ 150 µg/mL)

O=C(O)Cn1c(-c2ccccc2)cc(-c2cccc3ccccc23)c1-c1ccco1
MIC [1]: 7.95 µM (≈ 3.13 µg/mL) | MIC [2]: 13.3 µM (≈ 5.22 µg/mL) | inhibition at 72 h, 50 µM [3]: 32% | IC50 [4]: < 50 µM | selectivity ratio [5]: > 6.29

O=C(Cn1c(-c2ccccc2)cc(-c2ccccc2)c1-c1ccco1)NCc1ccccc1
MIC [1]: 7.23 µM (≈ 3.13 µg/mL) | MIC [2]: 347 µM (≈ 150 µg/mL) | GI50 [6]: 52.4 µM | inhibition at 72 h, 50 µM [3]: 72.4% | IC50 [4]: < 50 µM | selectivity ratio [5]: 6.91

O=C(O)Cn1c(-c2ccccc2)cc(-c2ccccc2)c1-c1ccc(Cl)cc1
MIC [1]: 64.6 µM (≈ 25.1 µg/mL) | MIC [2]: 388 µM (≈ 150 µg/mL) | inhibition at 72 h, 50 µM [3]: 37.4% | IC50 [4]: < 50 µM | selectivity ratio [5]: 1.55

O=C(Cn1c(-c2ccccc2)cc(-c2ccccc2)c1-c1ccco1)NCCc1c[nH]c2ccccc12
MIC [1]: 6.44 µM (≈ 3.13 µg/mL) | MIC [2]: 77.3 µM (≈ 37.5 µg/mL) | GI50 [6]: 26.8 µM | inhibition at 72 h, 50 µM [3]: 62.5% | IC50 [4]: < 50 µM | selectivity ratio [5]: 7.76

CCc1nnc(NC(=O)Cn2c(-c3ccccc3)cc(-c3ccccc3)c2-c2ccco2)s1
MIC [1]: 27.6 µM (≈ 12.5 µg/mL) | MIC [2]: 331 µM (≈ 151 µg/mL) | GI50 [6]: 23.3 µM | inhibition at 72 h, 50 µM [3]: 81% | IC50 [4]: < 50 µM | selectivity ratio [5]: 1.81

CCc1nnc(NC(=O)Cn2c(-c3ccccc3)cc(-c3ccccc3)c2-c2ccccc2)s1
MIC [1]: 13.5 µM (≈ 6.26 µg/mL) | MIC [2]: 323 µM (≈ 150 µg/mL) | GI50 [6]: 20.4 µM | inhibition at 72 h, 50 µM [3]: 49.3% | IC50 [4]: < 50 µM | selectivity ratio [5]: 3.71

NNC(=O)c1ccncc1 [ISONIAZID]
MIC [1]: 5.25 µM (≈ 0.72 µg/mL) | GI50 [6]: 41.6 µM

O=C(O)Cn1c(-c2ccccc2)cc(-c2ccccc2)c1-c1ccc(Br)cc1
MIC [1]: 32.3 µM (≈ 14 µg/mL) | MIC [2]: 348 µM (≈ 150 µg/mL)

CN[C@@H]1[C@H](O[C@H]2[C@H](O[C@H]3[C@H](O)[C@@H](O)[C@H](N=C(N)N)[C@@H](O)[C@@H]3N=C(N)N)O[C@@H](C)[C@]2(O)C=O)O[C@@H](CO)[C@H](O)[C@H]1O [STREPTOMYCIN]
MIC [2]: 2.68 µM (≈ 1.56 µg/mL)

O=C(Cn1c(-c2ccccc2)cc(-c2ccccc2)c1-c1ccco1)Nc1nc2ccccc2s1
MIC [1]: 13.2 µM (≈ 6.26 µg/mL) | MIC [2]: 316 µM (≈ 150 µg/mL) | GI50 [6]: 44.6 µM | inhibition at 72 h, 50 µM [3]: 89.8% | IC50 [4]: < 50 µM | selectivity ratio [5]: 3.8

O=C(O)Cn1c(-c2ccccc2)cc(-c2ccccc2)c1-c1ccccc1
MIC [1]: 34.1 µM (≈ 12 µg/mL) | MIC [2]: 47.7 µM (≈ 16.9 µg/mL) | inhibition at 72 h, 50 µM [3]: 97% | IC50 [4]: < 50 µM | selectivity ratio [5]: 1.47

O=C(Cn1c(-c2ccccc2)cc(-c2ccccc2)c1-c1ccccc1)Nc1ccccn1
MIC [1]: 7.28 µM (≈ 3.13 µg/mL) | MIC [2]: 175 µM (≈ 75.1 µg/mL) | GI50 [6]: 26.7 µM | inhibition at 72 h, 50 µM [3]: 62.9% | IC50 [4]: < 50 µM | selectivity ratio [5]: 6.86

O=C(Cn1c(-c2ccc3ccccc3c2)cc(-c2ccccc2)c1-c1ccco1)Nc1nc2ccccc2s1
MIC [1]: 2.97 µM (≈ 1.56 µg/mL) | MIC [2]: 286 µM (≈ 150 µg/mL) | inhibition at 72 h, 50 µM [3]: 38.3% | IC50 [4]: < 50 µM | selectivity ratio [5]: > 16.8

CCc1nnc(NC(=O)Cn2c(-c3ccc4ccccc4c3)cc(-c3ccccc3)c2-c2ccco2)s1
MIC [1]: 24.8 µM (≈ 12.5 µg/mL) | MIC [2]: 298 µM (≈ 150 µg/mL) | GI50 [6]: 73.9 µM | inhibition at 72 h, 50 µM [3]: 83.6% | IC50 [4]: < 50 µM | selectivity ratio [5]: 2.02

Cc1ccc(-c2c(-c3ccccc3)cc(-c3ccccc3)n2CC(=O)O)cc1
MIC [1]: 58 µM (≈ 21.3 µg/mL) | MIC [2]: 409 µM (≈ 150 µg/mL) | inhibition at 72 h, 50 µM [3]: 78.2% | IC50 [4]: < 50 µM | selectivity ratio [5]: 0.86

CC[C@@H](CO)NCCN[C@@H](CC)CO [ETHAMBUTOL]
MIC [1]: 27.5 µM (≈ 5.62 µg/mL)

CC(C)C(C(=O)O)n1c(-c2ccccc2)cc(-c2ccccc2)c1-c1ccco1 (stereo not given)
MIC [1]: 130 µM (≈ 50.1 µg/mL) | MIC [2]: 97.4 µM (≈ 37.5 µg/mL)

CC(C)CC(C(=O)O)n1c(-c2ccccc2)cc(-c2ccccc2)c1-c1ccco1 (stereo not given)
MIC [1]: 7.83 µM (≈ 3.13 µg/mL) | MIC [2]: 376 µM (≈ 150 µg/mL) | inhibition at 72 h, 50 µM [3]: 82.4% | IC50 [4]: < 50 µM | selectivity ratio [5]: 6.38

O=C(Cn1c(-c2ccccc2)cc(-c2ccco2)c1-c1ccco1)Nc1nc2ccccc2s1
MIC [1]: 29.5 µM (≈ 13.7 µg/mL) | MIC [2]: 354 µM (≈ 165 µg/mL) | GI50 [6]: 14 µM | inhibition at 72 h, 50 µM [3]: 65.1% | IC50 [4]: < 50 µM | selectivity ratio [5]: 1.7

CO[C@H]1/C=C/O[C@@]2(C)Oc3c(C)c(O)c4c(O)c(c(/C=N/N5CCN(C)CC5)c(O)c4c3C2=O)NC(=O)/C(C)=C\C=C\[C@H](C)[C@H](O)[C@@H](C)[C@@H](O)[C@@H](C)[C@H](OC(C)=O)[C@@H]1C [RIFAMPIN]
MIC [1]: 0.29 µM (≈ 0.239 µg/mL) | GI50 [6]: 1.22 µM

O=C(Cn1c(-c2ccc3ccccc3c2)cc(-c2ccccc2)c1-c1ccco1)NCc1ccccc1
MIC [1]: 51.9 µM (≈ 25 µg/mL) | MIC [2]: 311 µM (≈ 150 µg/mL)

O=C(Cn1c(-c2ccccc2)cc(-c2ccccc2)c1-c1ccccc1)Nc1nc2ccccc2s1
MIC [1]: 6.44 µM (≈ 3.13 µg/mL) | MIC [2]: 309 µM (≈ 150 µg/mL) | GI50 [6]: 28.9 µM | inhibition at 72 h, 50 µM [3]: 55% | IC50 [4]: < 50 µM | selectivity ratio [5]: 0.76

O=C(O)Cn1c(-c2cccc3ccccc23)cc(-c2ccccc2)c1-c1ccco1
MIC [1]: 31.8 µM (≈ 12.5 µg/mL) | MIC [2]: 47.7 µM (≈ 18.8 µg/mL) | inhibition at 72 h, 50 µM [3]: 79.5% | IC50 [4]: < 50 µM | selectivity ratio [5]: 1.57

CC1(C)S[C@@H]2[C@H](NC(=O)Cc3ccccc3)C(=O)N2[C@H]1C(=O)O [PENICILLIN G]
MIC [2]: 37.4 µM (≈ 12.5 µg/mL)

O=C(Cn1c(-c2ccccc2)cc(-c2cccc3ccccc23)c1-c1ccco1)Nc1nc2ccccc2s1
MIC [1]: 2.97 µM (≈ 1.56 µg/mL) | MIC [2]: 286 µM (≈ 150 µg/mL) | GI50 [6]: 61.4 µM | inhibition at 72 h, 50 µM [3]: 68.8% | IC50 [4]: < 50 µM | selectivity ratio [5]: 16.8

CCc1nnc(NC(=O)Cn2c(-c3ccccc3)cc(-c3cccc4ccccc34)c2-c2ccco2)s1
MIC [1]: 3.1 µM (≈ 1.56 µg/mL) | MIC [2]: 298 µM (≈ 150 µg/mL) | GI50 [6]: 66.8 µM | inhibition at 72 h, 50 µM [3]: 59.7% | IC50 [4]: < 50 µM | selectivity ratio [5]: 16.1

O=C(Cn1c(-c2ccccc2)cc(-c2ccccc2)c1-c1ccc(Br)cc1)Nc1ccccn1
MIC [1]: 6.15 µM (≈ 3.13 µg/mL) | MIC [2]: 295 µM (≈ 150 µg/mL) | GI50 [6]: 45.9 µM | inhibition at 72 h, 50 µM [3]: 75% | IC50 [4]: < 50 µM | selectivity ratio [5]: 8.13

CCc1nnc(NC(=O)Cn2c(-c3ccccc3)cc(-c3ccco3)c2-c2ccco2)s1
MIC [1]: 14.1 µM (≈ 6.26 µg/mL) | MIC [2]: 338 µM (≈ 150 µg/mL) | GI50 [6]: 15.2 µM | inhibition at 72 h, 50 µM [3]: 90.2% | IC50 [4]: < 50 µM | selectivity ratio [5]: 3.55

O=C(Cn1c(-c2ccccc2)cc(-c2ccccc2)c1-c1ccco1)Nc1ccccn1
MIC [1]: 29.8 µM (≈ 12.5 µg/mL) | MIC [2]: 358 µM (≈ 150 µg/mL) | GI50 [6]: 24.8 µM | inhibition at 72 h, 50 µM [3]: 69.3% | IC50 [4]: < 50 µM | selectivity ratio [5]: 1.68

CCc1nnc(NC(=O)Cn2c(-c3ccccc3)cc(-c3ccccc3)c2-c2ccc(Br)cc2)s1
MIC [1]: 46.1 µM (≈ 25.1 µg/mL) | MIC [2]: 277 µM (≈ 150 µg/mL) | GI50 [6]: 30.6 µM

O=C(Cn1c(-c2ccccc2)cc(-c2ccccc2)c1-c1ccc(Br)cc1)Nc1nc2ccccc2s1
MIC [1]: 11.1 µM (≈ 6.25 µg/mL) | MIC [2]: 266 µM (≈ 150 µg/mL) | GI50 [6]: 48.3 µM | inhibition at 72 h, 50 µM [3]: 86.7% | IC50 [4]: < 50 µM | selectivity ratio [5]: 4.51

O=C(O)Cn1c(-c2ccccc2)cc(-c2ccccc2)c1-c1ccco1
MIC [1]: 18.2 µM (≈ 6.26 µg/mL) | MIC [2]: 54.7 µM (≈ 18.8 µg/mL) | inhibition at 72 h, 50 µM [3]: 114% | IC50 [4]: < 50 µM | selectivity ratio [5]: 2.74
